Target: T1, dihydropyridine (DHP) site (Oryctolagus cuniculus, UniProt P07293)
T1 construct: Washed rabbit skeletal muscle membranes (fraction 2-8X); from tissue; host or cells: rabbit skeletal muscle, washed membranes (fraction 2-8X)
Assay: 3H-nitrendipine binding assay on washed rabbit skeletal muscle membranes
Settings: read-out: Binding Assay KI (moles)
Experimental: The incubation tubes were rapidly chilled in ice and the contents filtered through Whatman GF/B filters on a Millipore manifold, and the filters washed with 2×10 ml ice-cold HEPES buffer. The filters were placed in scintillation counting vials with 8 ml of Cytoscint cocktail, disrupted mechanically by shaking for 30 minutes and counted.
Drugs which interact at the dihydropyridine (DHP) site will reduce this specific binding in a dosedependent manner. The assays for the compounds of this invention were made with logarithmically spaced concentrations, the data were plotted on a probitconcentration plot, and the IC50 read off. The KI of the compound was calculated by standard techniques.

T1 sequence (P07293 1-1664 limits assumed): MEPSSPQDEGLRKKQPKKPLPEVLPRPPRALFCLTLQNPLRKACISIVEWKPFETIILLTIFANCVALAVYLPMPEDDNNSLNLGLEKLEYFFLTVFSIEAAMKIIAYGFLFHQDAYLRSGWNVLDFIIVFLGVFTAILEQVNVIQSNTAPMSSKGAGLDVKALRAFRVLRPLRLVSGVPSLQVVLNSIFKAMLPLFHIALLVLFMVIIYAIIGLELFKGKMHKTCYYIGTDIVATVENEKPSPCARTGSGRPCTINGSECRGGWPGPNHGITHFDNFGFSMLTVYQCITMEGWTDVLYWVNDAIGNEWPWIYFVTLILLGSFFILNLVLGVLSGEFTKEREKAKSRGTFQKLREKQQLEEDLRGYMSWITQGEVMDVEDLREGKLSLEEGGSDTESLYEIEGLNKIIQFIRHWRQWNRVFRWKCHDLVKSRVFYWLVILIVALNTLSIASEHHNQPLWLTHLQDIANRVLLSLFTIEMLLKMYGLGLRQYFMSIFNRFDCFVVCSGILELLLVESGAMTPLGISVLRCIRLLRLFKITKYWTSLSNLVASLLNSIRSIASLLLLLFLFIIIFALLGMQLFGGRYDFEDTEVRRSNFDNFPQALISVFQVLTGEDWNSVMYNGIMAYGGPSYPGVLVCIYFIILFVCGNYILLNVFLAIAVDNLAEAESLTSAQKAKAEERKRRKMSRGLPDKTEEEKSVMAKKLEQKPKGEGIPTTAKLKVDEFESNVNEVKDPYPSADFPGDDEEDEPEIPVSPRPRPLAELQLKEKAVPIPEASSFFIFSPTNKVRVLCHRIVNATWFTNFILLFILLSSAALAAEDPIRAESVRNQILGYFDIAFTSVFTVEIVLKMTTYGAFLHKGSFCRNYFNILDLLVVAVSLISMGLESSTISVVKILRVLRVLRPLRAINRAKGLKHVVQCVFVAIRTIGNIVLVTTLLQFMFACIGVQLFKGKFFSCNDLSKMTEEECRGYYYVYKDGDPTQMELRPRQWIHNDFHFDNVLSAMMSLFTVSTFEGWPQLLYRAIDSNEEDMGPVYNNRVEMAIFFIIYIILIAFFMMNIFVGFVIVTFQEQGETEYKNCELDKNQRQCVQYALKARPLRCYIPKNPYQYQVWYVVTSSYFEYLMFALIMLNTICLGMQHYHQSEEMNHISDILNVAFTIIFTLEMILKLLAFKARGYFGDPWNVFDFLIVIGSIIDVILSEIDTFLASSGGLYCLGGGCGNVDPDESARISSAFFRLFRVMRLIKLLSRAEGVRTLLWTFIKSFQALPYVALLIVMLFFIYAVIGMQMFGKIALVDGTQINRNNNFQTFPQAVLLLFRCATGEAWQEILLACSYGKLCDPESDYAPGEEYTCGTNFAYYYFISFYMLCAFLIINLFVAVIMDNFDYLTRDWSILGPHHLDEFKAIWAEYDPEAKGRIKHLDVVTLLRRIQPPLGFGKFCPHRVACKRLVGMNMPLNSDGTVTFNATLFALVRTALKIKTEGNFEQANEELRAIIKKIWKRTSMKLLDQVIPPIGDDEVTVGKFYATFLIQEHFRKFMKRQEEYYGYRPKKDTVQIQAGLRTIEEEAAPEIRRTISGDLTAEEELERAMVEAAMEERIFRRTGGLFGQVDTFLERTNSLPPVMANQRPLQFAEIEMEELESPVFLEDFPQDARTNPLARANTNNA
T1 sequence (P13806 27-960 partner limits assumed): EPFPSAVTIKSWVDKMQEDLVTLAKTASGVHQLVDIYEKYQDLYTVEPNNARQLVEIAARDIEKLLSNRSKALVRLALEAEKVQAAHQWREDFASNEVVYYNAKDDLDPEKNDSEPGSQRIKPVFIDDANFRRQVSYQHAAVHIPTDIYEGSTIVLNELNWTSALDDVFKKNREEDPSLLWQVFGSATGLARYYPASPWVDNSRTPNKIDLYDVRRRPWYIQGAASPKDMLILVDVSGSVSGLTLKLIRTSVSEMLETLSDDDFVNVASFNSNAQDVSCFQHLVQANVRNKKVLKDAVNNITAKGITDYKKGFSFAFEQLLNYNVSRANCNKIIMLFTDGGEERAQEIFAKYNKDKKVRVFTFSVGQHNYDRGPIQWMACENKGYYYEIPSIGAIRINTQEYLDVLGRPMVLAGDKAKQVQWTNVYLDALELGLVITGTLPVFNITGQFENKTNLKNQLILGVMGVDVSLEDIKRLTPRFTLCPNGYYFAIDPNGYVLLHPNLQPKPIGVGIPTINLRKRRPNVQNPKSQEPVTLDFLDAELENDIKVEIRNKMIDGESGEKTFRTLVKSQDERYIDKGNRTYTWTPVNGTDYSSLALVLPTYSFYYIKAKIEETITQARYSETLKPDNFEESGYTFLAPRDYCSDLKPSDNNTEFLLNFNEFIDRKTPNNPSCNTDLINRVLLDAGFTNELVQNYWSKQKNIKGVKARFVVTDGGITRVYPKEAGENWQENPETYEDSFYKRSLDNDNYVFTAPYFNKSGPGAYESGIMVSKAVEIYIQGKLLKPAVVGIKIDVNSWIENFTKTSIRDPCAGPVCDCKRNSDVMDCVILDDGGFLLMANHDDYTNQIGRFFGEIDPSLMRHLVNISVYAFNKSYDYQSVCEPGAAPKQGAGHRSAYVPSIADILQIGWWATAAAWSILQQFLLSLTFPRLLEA
T1 sequence (P13806 961-1106 partner limits assumed): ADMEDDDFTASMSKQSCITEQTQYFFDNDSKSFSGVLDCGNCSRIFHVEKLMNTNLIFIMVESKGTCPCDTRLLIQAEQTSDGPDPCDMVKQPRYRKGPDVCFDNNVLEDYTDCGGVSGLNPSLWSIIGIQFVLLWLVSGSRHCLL
T1 sequence (P19517 whole entry partner): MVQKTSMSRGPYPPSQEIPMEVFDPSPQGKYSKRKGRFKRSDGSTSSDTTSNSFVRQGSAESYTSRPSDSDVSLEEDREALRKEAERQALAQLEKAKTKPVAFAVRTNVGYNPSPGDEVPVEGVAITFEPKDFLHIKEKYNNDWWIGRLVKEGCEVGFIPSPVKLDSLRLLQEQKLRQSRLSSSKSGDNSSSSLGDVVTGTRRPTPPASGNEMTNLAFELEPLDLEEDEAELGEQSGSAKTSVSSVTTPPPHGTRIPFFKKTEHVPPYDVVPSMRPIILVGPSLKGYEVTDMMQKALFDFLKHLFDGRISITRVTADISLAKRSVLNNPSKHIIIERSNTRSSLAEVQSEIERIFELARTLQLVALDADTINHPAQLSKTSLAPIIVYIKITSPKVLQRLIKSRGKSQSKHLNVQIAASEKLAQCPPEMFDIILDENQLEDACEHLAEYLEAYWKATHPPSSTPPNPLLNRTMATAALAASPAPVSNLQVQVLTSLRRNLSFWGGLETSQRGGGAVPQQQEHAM
T1 sequence (P19518 whole entry partner): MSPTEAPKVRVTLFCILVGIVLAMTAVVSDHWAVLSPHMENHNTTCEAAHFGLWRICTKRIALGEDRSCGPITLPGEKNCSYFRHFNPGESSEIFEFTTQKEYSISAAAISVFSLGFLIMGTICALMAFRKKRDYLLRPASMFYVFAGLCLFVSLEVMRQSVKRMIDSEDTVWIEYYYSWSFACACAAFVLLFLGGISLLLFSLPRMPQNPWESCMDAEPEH

In the case of CCOC(=O)C1=C(CCN2C(=O)c3ccccc3C2=O)NC(C)=C(C(=O)OC)C1c1cccc([N+](=O)[O-])c1 (stereo not shown) [12(e), 1,4-Dihydro-6-methyl-4(3-nitrophenyl)2-(2-phthalimidoethyl)-3,5-pyridine dicarboxylic acid-3-ethyl-5-methyl ester], the Ki is reported as 105 nM.
COC(=O)C1=C(C)NC(C)=C(C(=O)OCCN)C1c1cccc(C)c1 (stereo not shown) [Example 2, 1,4-Dihydro-2,6-dimethyl-4-(3-methylphenyl)-3,5-pyridine dicarboxylic acid, 3-(2-aminoethyl)-5-methyl ester] gave a Ki of 1250 nM.
Compound COC(=O)C1=C(C)NC(C)=C(C(=O)OCCN)C1c1cccc([N+](=O)[O-])c1 (stereo not shown) [Example 3, 1,4-Dihydro-2,6-dimethyl-4-(3-nitrophenyl)-3,5-pyridine dicarboxylic acid, 3-(2-aminoethyl)-5-methyl ester] has a Ki of over 100 nM.
COC(=O)C1=C(C)NC(C)=C(C(=O)OCCN=C=S)C1c1cccc([N+](=O)[O-])c1 (stereo not shown) [Example 7, 1,4-Dihydro-2,6-dimethyl-4-(3-nitrophenyl)-3,5-pyridine dicarboxylic acid, 3-(2isothiocyanatoethyl)-5-methyl ester] was tested, and the Ki was 1.3 nM.
With COC(=O)C1=C(C)NC(C)=C(C(=O)OCCCN=C=S)C1c1cccc([N+](=O)[O-])c1 (stereo not shown) [Example 8, 1,4-Dihydro-2.6-dimethyl-4-(3-nitrophenyl)-3,5-pyridine dicarboxylic acid, 3-(3-isothiocyanatopropyl)-5-methyl ester] the Ki was 1.6 nM.
Work on COC(=O)C1=C(C)NC(C)=C(C(=O)OCCCCCCN=C=S)C1c1cccc([N+](=O)[O-])c1 (stereo not shown) [Example 9, 1,4-Dihydro-2,6-dimethyl-4-(3-nitrophenyl)-3,5-pyridine dicarboxylic acid, 3-(6-isothiocyanatohexyl)-5-methyl ester] yielded a Ki of 1.9 nM.
For CCOC(=O)C1=C(CCN2C(=O)c3ccccc3C2=O)NC(CCN2C(=O)c3ccccc3C2=O)=C(C(=O)OCC)C1c1cccc([N+](=O)[O-])c1 [Example 13, 1,4-Dihydro-4(3-nitrophenyl)-2,6-(2-phthalimidoethyl)-3,5-pyridine dicarboxylic acid, ethyl ester], the Ki was 1120 nM.

— patent US4849436A, “1,4-dihydropyridines” (Nelson Research & Development Co., priority 1986, dated 1989)
